The data set in a line: physchem. As to conditions: water.

SMILES strings stand for the structures. Where only a bound is given, the exact number is not on record here.

Regarding `N=C(N)NCCCC(N)C(=O)NCCCN1CCN(CCCNC(=O)C(N)CCCNC(=N)N)CC1` (stereo not shown) [formula V, 2-Amino-5-guanidino-pentanoic acid (3-{4-[3-(2-amino-5-guanidino-pentanoylamino)-propyl]-piperazin-1-yl}-propyl)-amide], the solubility (in general, how much of the substance goes into solution per volume) was > 100 mg/mL.

These data come from US9999690B2, “Labeled compounds and methods of imaging, diagnosing cartilage disorders and diseases, and monitoring cartilage health using labeled and unlabeled compounds” (Perosphere Inc., priority 2013, dated 2018).
